Data published in patent US20230219912A1, “HALOGENATED BENZOTHIADIAZINES FOR THE TREATMENT OF CANCER” (BOARD OF REGENTS OF THE UNIVERSITY OF NEBRASKA, priority 2020, published 2023).
“Also recorded” adds a separate entry of the source. Read-outs that look alike come from different tables or passages of the source.

How the values were obtained:
[1] = tested on: VEGF-induced proliferation of HUVEC cells; assay: VEGF-induced HUVEC proliferation, MTT assay; format: cell-based, human; settings: for inhibition of VEGF-induced HUVEC proliferation (in words): 20 μM; for inhibition at 20 µM: Homo sapiens, HUVEC, 48 h, read-out: % Inhibition of Proliferation
Method in brief: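 HUVECs starved 24 h in 0.1% BSA/0.1% FBS basal medium, then treated 48 h with VEGF (10 ng/mL) alone or with compounds at 20 μM (DMSO <1%). Proliferation by MTT (2 h, 37° C), formazan dissolved in acidified isopropanol, absorbance at 570 nm.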

[2] = tested on: phosphorylated vascular endothelial growth factor receptor-2 (VEGFR2); assay: Western blot of pVEGFR2 in VEGF-treated HUVEC cells; format: cell-based, human; settings: 20 μM, VEGF 10 ng/mL, 5 min
Procedure: Cells were treated with test compounds (20 μM) along with VEGF (10 ng/mL) for 5 min. The DMSO was used as a negative control, whereas DMSO+VEGF was used as a positive control. Cells were lysed using RIPA buffer (10 mmol/L Tris-HCl, 1 mmol/L EDTA, 0.5 mmol/L EGTA, 1% Triton X-100, 0.1% sodium deoxycholate, 0.1% SDS and 140 mmol/L NaCl), supplemented with protease and phosphatase inhibitors (Halt Protease and Phosphatase Inhibitor). Cell lysates were centrifuged, and the supernatants were mixed with appropriate amount of 5×SDS loading buffer. Proteins were resolved on polyacrylamide gel and transferred onto nitrocellulose/PVDF membrane, blocked for 1 hour with 10% milk block prepared in 0.1% Tween 20 in 1×PBS (PBST), and treated with pVEGFR2 primary antibody at 4° C. overnight. The membrane was washed thrice with PBST, 5 minutes each, and treated with secondary antibody for 1 hour. The membrane was further washed three times, 5 minutes each, with PBST and developed using chemiluminescence, and the bands were analyzed using densitometry.

[3] = tested on: 22Rv1 prostate cancer cells; assay: MTS cytotoxicity assay in 22Rv1 prostate cancer cells; settings: Homo sapiens, 22Rv1, 48 h, read-out: reduction of 22Rv1 cell viability
Method in brief: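 Cells seeded at 1×10^5 per well and dosed after 24 h at the indicated concentrations (final DMSO <1%), then incubated 48-72 hours at 37° C, 5% CO2. MTS added for 2-4 hr; absorbance at 490 nm, viability expressed as percentage of controls.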

[4] = target: T1, Mitochondrial respiratory complex II (Rattus norvegicus, UniProt P21913+Q641Z9+Q6PCT8+Q920L2); assay: Mitochondrial respiratory complex II inhibition assay; format: biochemical; settings: 100 μM, relative to DMSO control; read-out: inhibition of CII
T1 construct: measured spectrophotometrically using isolated rat heart mitochondria; from tissue; host or cells: rat heart mitochondria / sub-mitochondrial particles
Method in brief: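 Rat heart mitochondria or sub-mitochondrial particles in phosphate buffer pH 7.4 with 40 μM DCPIP, 1 mM KCN, 10 μM rotenone and 50 μM co-enzyme Q2.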

[5] = tested on: MDA-MB-468 triple negative breast cancer cells; assay: MTS cytotoxicity assay in MDA-MB-468 triple negative breast cancer cells; format: cell-based; settings: Homo sapiens, MDA-MB-468; 72 hours; mean ± SD n = 3
Procedure: The assay was performed as follows.
Derivatives were dosed at 10, 50 and 100 μM for 24, 48 and 72 hours and cell viability measured by MTS assay (FIG. 5).

[6] = tested on: human embryonic kidney (HEK293) cells; assay: MTS cytotoxicity assay in HEK293 cells; format: cell-based; settings: 72 hours, mean ± SD n = 3
Procedure: The assay was performed as follows. To determine the cell growth inhibition ability of the synthesized compounds the (3-(4,5-dimethylthiazol-2-yl)-5-(3-carboxymethoxyphenyl)-2-(4-sulfophenyl)-2H-tetrazolium) (MTS) assay used according to the manufacturer's recommended protocol. Stock solutions of the synthesized compounds were prepared in DMSO. Cells were seeded at a density of 1×10^5 cells in 96-well plates. After 24 hours, cells were treated at the indicated concentrations of test compounds, limiting the final DMSO concentration to less than 1%. After incubation at 37° C. in an environment of 5% CO2 for 48-72 hours, 10 μL of MTS reagent (CellTiter 96© AQueous One Solution Reagent) was added to each well and incubated at the above mentioned conditions for 2-4 hr. Absorbance was recorded at 490 nm on a BioTek Synergy Mx multimode plate reader and the viability of cells were plotted as percentage of controls.
Cytotoxicity was also evaluated by using the low tumorigenic HEK293 cells at 50 μM concentration.

[7] = 20 μM compound, VEGF 10 ng/mL, relative to VEGF treated cells, mean ± SEM n = 3

T1 sequence (Q920L2 35-656): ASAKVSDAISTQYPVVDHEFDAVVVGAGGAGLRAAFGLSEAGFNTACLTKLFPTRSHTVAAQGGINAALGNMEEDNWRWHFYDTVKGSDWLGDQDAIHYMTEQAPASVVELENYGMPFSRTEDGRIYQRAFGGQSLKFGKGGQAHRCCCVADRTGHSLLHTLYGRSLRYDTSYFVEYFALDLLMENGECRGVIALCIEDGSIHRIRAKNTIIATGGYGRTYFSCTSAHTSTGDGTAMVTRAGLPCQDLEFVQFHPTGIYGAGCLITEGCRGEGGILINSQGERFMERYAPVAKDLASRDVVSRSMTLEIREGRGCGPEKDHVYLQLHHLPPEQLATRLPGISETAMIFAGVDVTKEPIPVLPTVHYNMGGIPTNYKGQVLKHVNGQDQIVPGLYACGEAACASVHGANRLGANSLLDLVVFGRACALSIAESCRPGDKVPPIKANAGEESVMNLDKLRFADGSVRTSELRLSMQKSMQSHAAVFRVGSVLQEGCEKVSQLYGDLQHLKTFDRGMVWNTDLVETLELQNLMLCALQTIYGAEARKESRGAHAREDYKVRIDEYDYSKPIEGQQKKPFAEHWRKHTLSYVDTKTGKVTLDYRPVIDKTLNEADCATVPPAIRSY
T1 sequence (P21913 31-282): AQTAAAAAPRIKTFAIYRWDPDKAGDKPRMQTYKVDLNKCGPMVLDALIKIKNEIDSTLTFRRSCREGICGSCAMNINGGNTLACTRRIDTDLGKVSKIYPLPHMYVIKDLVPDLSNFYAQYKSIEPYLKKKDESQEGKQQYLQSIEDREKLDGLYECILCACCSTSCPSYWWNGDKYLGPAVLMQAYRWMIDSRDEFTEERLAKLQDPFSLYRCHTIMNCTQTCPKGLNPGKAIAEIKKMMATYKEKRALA
T1 sequence (Q641Z9 1-169): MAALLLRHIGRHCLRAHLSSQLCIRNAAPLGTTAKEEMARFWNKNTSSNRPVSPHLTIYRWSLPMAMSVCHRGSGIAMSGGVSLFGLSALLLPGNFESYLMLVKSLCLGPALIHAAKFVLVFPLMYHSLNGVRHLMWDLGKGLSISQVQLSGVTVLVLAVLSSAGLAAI
T1 sequence (Q6PCT8 57-159): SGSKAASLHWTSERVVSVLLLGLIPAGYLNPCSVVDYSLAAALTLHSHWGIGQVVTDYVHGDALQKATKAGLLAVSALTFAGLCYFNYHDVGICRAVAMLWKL

Row | inhibition at 100 µM [4] [%] | SMILES | inhibition of VEGF-induced HUVEC proliferation (in words) ([1]; VEGF 10 ng/mL) | inhibition at 20 µM [1, 7] [%] | attenuation of pVEGFR2 expression [2] | inhibition at 20 µM [1] [%] | cytotoxicity at 100 µM [3] [%] | IC50 [5] [µM] | IC50 [6] [µM]
1 |  | O=S1(=O)N=C(NC2CCCC2)Nc2ccc(Cl)cc21 [Compound 59e, 7-Chloro-3-(cyclopentylamino)-4H-benzo[e][1,2,4]thiadiazine 1,1-dioxide] | suppressed HUVEC proliferation; also recorded: enhanced activity | 133 ± 6 | outperformed the parent compound; also recorded: most potent |  |  |  | 
2 |  | COc1cccc(CNC2=NS(=O)(=O)c3cc(Cl)ccc3N2)c1 [Compound 62e, 7-Chloro-3-((3-methoxybenzyl)amino)-4H-benzo[e][1,2,4]thiadiazine 1,1-dioxide] | suppressed HUVEC proliferation; also recorded: enhanced activity |  | outperformed the parent compound; also recorded: most potent | 96 ± 16 |  |  | 
3 |  | Cc1cccc(CNC2=NS(=O)(=O)c3cc(Cl)ccc3N2)c1 [Compound 58e, 7-Chloro-3-((3-methylbenzyl)amino)-4H-benzo[e][1,2,4]thiadiazine1,1-dioxide] | suppressed HUVEC proliferation; also recorded: enhanced activity |  | outperformed the parent compound | 145 ± 6 |  |  | 
4 |  | CC(NC1=NS(=O)(=O)c2ccccc2N1)c1ccccc1 (stereo not shown) [Compound 24d, 3-((1-phenylethyl)amino)-4H-benzo[e][1,2,4]thiadiazine 1,1-dioxide] |  |  | outperformed the parent compound; also recorded: most potent |  | ~30 |  | 
5 | 21 | O=S1(=O)N=C(NCc2ccc(OC(F)(F)F)cc2)Nc2ccc(Br)cc21 [Compound 30c, 7-bromo-3-((4-(trifluoromethoxy)benzyl)amino)-4H-benzo[e][1,2,4]thiadiazine 1,1-dioxide] |  |  | outperformed the parent compound |  | 45 |  | 
6 |  | O=S1(=O)N=C(NCc2ccc(OC(F)(F)F)cc2)Nc2cc(Cl)ccc21 [Compound 30b, 6-chloro-3-((4-(trifluoromethoxy)benzyl)amino)-4H-benzo[e][1,2,4]thiadiazine 1,1-dioxide] | suppressed HUVEC proliferation; also recorded: enhanced activity | 196 ± 11 | outperformed the parent compound; also recorded: most potent |  |  | 48 | 77.2
